Measured values as given in US20080193379A1, “Radioactive Diagnostic Imaging Agent” (Nihon Medi-Physics Co., Ltd., priority 2005, published 2008).

How the values were obtained:
[1] = as injection additive; cited from earlier work
[2] = Radiolysis stability of 18F-FDG solutions with mannitol: radiochemical purity by TLC (Examples 13-18, Comparative Example 2); format: physicochemical; conditions: added at 2.5 mmol/L or higher concentrations
Method: The same procedure as in Comparative Example 1 and Examples 1 through 12 was repeated to obtain a ^18F-FDG stock solution (radioactivity=126.3 GBq). To the ^18F-FDG stock solution, physiological saline was added for dilution so that the resulting solution had 92.5 MBq/mL 4.5 hours after preparation. This gave a ^18F-FDG solution.
To 2 mL of the above-obtained ^18F-FDG solution, the mannitol solutions having different concentrations shown in Table 3 were each added in amounts shown in Table 3, and mixed at room temperature to prepare respective sample solutions.
The above-obtained samples were subjected to TLC analysis on the below conditions immediately after the preparation of ^18F-FDG solution (Comparative Example 2 only), and 4.5 and 8.5 hours after the preparation. Radiochemical purity was obtained based on the area percentage of the ^18F-FDG peak. The radiochemical purity at each time point was compared to one another to evaluate stability of the samples.
TLC plate=Silica Gel 60 F254 (under trade name, manufactured by Merck & Co., Inc.)
Developing solvent=acetonitrile/water=19:1
Detector=Radiochromanizer (JTC-R75-21361, manufactured by Aloka)

glucose transporters = conditions: reported by Heli Teerijoki et al. and A. N. Ouraishi et al.; cited from earlier work
[3] = aqueous solution; reported by Sara Goldstein et al.; cited from earlier work

SMILES	Maximum dose for intravenous injection [1]	Prevention of the decrease in radiochemical purity of 18F-FDG caused by radiolysis [2]	Substrate for glucose transporters (glucose transporters)	Scavenger of OH radicals [3]
OC[C@H]1O[C@H](O[C@H]2[C@H](O)[C@@H](O)[C@H](O)O[C@@H]2CO)[C@H](O)[C@@H](O)[C@@H]1O [maltose]	10 g			
OC[C@H]1O[C@@H](O[C@H]2[C@H](O)[C@@H](O)C(O)O[C@@H]2CO)[C@H](O)[C@@H](O)[C@H]1O (stereo partly drawn) [lactose]	1.25 g			
OC[C@@H](O)[C@@H](O)[C@H](O)[C@H](O)CO [mannitol]	1.2 g	can significantly prevent the decrease in the radiochemical purity	does not serve as a substrate for glucose transporters	acts as a scavenger of OH radials
OC[C@@H](O)[C@@H](O)[C@H](O)[C@@H](O)CO [sorbitol]	1.5 g			
OC[C@@H](O)[C@H](O)[C@@H](O)CO [xylitol]	0.2 g			
O=C(CO)[C@@H](O)[C@H](O)[C@H](O)CO [fructose]	0.9 g			
